For orientation: mass density means mass per unit of volume. As usually defined, the refractive index is the speed of light in vacuum divided by its phase velocity in the sample.

± gives the expanded uncertainty stated by the source.

The conditions of data set [1]: 298.15 K; 101.33 kPa; Liquid.
Data set [2] in a line: refractive index (Na D-line) (dimensionless). As to conditions: 293.15 K; 101.33 kPa; Liquid; Standard Abbe refractometry.

As for `C=C(C)OC(C)=O` [1-methylvinyl ethanoate], the mass density in data set [1] is reported as 927.8 ± 0.3 kg/m3. In data set [2], the refractive index came out at 1.4033 ± 0.0004.

Regarding `CC(=O)CC(C)=O` [2,4-pentanedione], the mass density in data set [1] was 971.9 ± 0.3 kg/m3. For the same compound, the refractive index in data set [2] is 1.4491 ± 0.0004.

Turning to `CC(=O)O` [acetic acid], the mass density in data set [1] came out at 1047.4 ± 0.3 kg/m3. Moreover, the refractive index in data set [2] amounted to 1.372 ± 0.0004.

The record behind these values is the NIST ThermoML archive (doi:10.1021/je800345j).
